The values below come from article PMC10634346 (Cancer Research Communications, 2023).

A short description of series [1]: Fraction unbound in cell media. Format: in vitro ADME.
The subject of series [2] is panel of 35 human lymphoma cell lines. Nature of the series: CellTiter-Glo cell viability, lymphoma cell line panel (OmniScreen). Format: cell-based. How it is done: Human DLBCL cell lines SU-DHL-4 (#ACC 495) and SU-DHL-10 (#ACC 576) were obtained from DSMZ (German Collection of Microorganisms and Cell Cultures). The supplier used PCR-based DNA profiling of polymorphic short tandem repeats for authentication and Mycoplasma testing prior to shipment. Cells were cultured in suspension at 37°C in a humidified atmosphere containing 5% CO2. CDK9 inhibitors KB-0742 (MedChemExpress, #HY-137478A), enitociclib, and atuveciclib ([…] Pharma, Inc.) were used. A subset of 35 lymphoma cell lines is from a 500-cell line panel where the effect of enitociclib on cell viability using CellTiter-Glo luminescent cell viability was determined (OmniScreen, CrownBioscience). Genetic status and gene expression level for MYC and MCL1 was obtained from CrownBioscience.
(In general: ATP-based viability assays read luminescence as a measure of living cells.)

In series [3] the test system is MCL1 mRNA in SU-DHL-10 cells. Nature of the series: In vitro washout, MCL1 mRNA qPCR, SU-DHL-10. Format: cell-based, human. As to conditions: 4 h treatment then washout, for 16 to 48 hours after treatment. How it is done:
Evaluation of the pharmacodynamic extent and duration of CDK9 inhibition were performed in vitro using the human DLBCL cell lines SU-DHL-4 and SU-DHL-10, harboring MYC amplification and MYC overexpression with P57T mutation, respectively. Cells were seeded 18 hours prior to treatment for 4 hours with one of three CDK9 inhibitors, enitociclib (0.25 and1 µmol/L), atuveciclib (1 µmol/L) or KB-0742 (1 µmol/L), cells were washed, and incubation continued until 48 hours posttreatment. Samples were collected before treatment (−4), immediately after treatment (0), and at 1, 2, 4, 8, 12, 16, 24, and 48 hours after washout for RNA sequencing (RNA-seq), qPCR, and Western blotting analyses. Total RNA was extracted from blood of patients and cell lines using RNeasy Plus Mini Kit (QIAGEN, #74136) and cDNA prepared with the Maxima First Strand cDNA Synthesis Kit for RT-PCR (Thermo Fisher Scientific, K1642) according to manufacturer's instructions. The integrity of purified total RNA was evaluated using an Agilent 2100 Bioanalyzer system and RNA 6000 Nano Kit (Agilent, #5067-1511). Differential gene expression analysis was performed (Fios Genomics) from RNA-seq data (Discovery Life Sciences). MYC and MCL1 mRNA levels were measured by qPCR in vitro and in vivo, using a Taqman qPCR system (Thermo Fisher Scientific), TaqMan Fast Universal PCR Master Mix (2X) no AmpErase (#4352042) and TaqMan probes for MYC (Hs00153408_m1) and MCL1 (Hs03043899_m1). RNA-seq data were analyzed using DESeq2 ([35]).
(In general: Real-time PCR tracks product formation cycle by cycle.)

In series [4] the test system is MYC mRNA in SU-DHL-10 tumors. Nature of the series: Pharmacodynamics in SU-DHL-10 xenograft tumors, MYC mRNA qPCR. Format: in vivo, C.B-17 SCID mice. As to conditions: single dose 10 and 15 mg/kg. How it is done: Total RNA was extracted from blood of patients and cell lines using RNeasy Plus Mini Kit (QIAGEN, #74136) and cDNA prepared with the Maxima First Strand cDNA Synthesis Kit for RT-PCR (Thermo Fisher Scientific, K1642) according to manufacturer's instructions. The integrity of purified total RNA was evaluated using an Agilent 2100 Bioanalyzer system and RNA 6000 Nano Kit (Agilent, #5067-1511). Differential gene expression analysis was performed (Fios Genomics) from RNA-seq data (Discovery Life Sciences). MYC and MCL1 mRNA levels were measured by qPCR in vitro and in vivo, using a Taqman qPCR system (Thermo Fisher Scientific), TaqMan Fast Universal PCR Master Mix (2X) no AmpErase (#4352042) and TaqMan probes for MYC (Hs00153408_m1) and MCL1 (Hs03043899_m1). RNA-seq data were analyzed using DESeq2 ([35]).
A total of 10 × 10^6 SU-DHL-10 cells were inoculated subcutaneously into 6–8 weeks old female C.B-17 SCID mice (Iffa Credo, Brussels). The mice were randomized to treatment groups at a tumor volume of 63–104 mm^3 and treated (intravenously, once weekly) with 10 mg/kg enitociclib (60% PEG400, 10% ethanol, water), 15 mg/kg enitociclib (30% PEG400, 10% ethanol, water), or corresponding vehicle treatments. Mice were around 10–12 weeks of age at the start of study. All animal experiments were performed under the national animal welfare laws of Germany and approved by the local authorities.

In series [5] the test system is p-Ser5 RNA polymerase II in SU-DHL-10 tumors. Put plainly: Pharmacodynamics in SU-DHL-10 xenograft tumors, p-Ser5. Format: in vivo, C.B-17 SCID mice. As to conditions: single dose, all doses (5, 10, 15 mg/kg). The method, then:
The levels of p-Ser2, p-Ser5 and total RNA polymerase II, Myc, Mcl-1, cleaved PARP (cPARP), and cleaved Caspase 3 were assessed by Western blotting and quantified near-infrared detection and background corrected quantification of fluorescence intensity on an Odyssey Imaging System with IRDye secondary antibodies (LI-COR Biosciences). For quantification, the protein levels were normalized to GAPDH or HSP90, expressed as a ratio to DMSO or vehicle control at matched timepoints. The normalized relative protein levels of p-Ser2 were used for a treatment effect comparison by performing an ANOVA using PROC MIXED in SAS. The ANOVA model included treatment, timepoints and their interactions as fixed effects. The least square means (LSM), differences between the LSMs and associated P values were generated. The following primary antibodies were used: Rpb1 NTD (D8L4Y) rabbit antibody [Cell Signaling Technology (CST), #14958], anti-RNA polymerase II subunit B1 (phospho CTD Ser-2, clone 3E10) rat antibody (Merck, 04-1571-I), recombinant anti-c-MYC rabbit antibody (Y69; Abcam, #ab32072), MCL1 (D5V5L) rabbit antibody (CST, #39224), cleaved-PARP (Asp214) (E2T4K) mouse antibody (CST, #32563), HSP90 (C45G5) rabbit antibody (CST, #4877), and GAPDH mouse antibody (Zytomed Systems, #ZYT-RGM2-6C5). […]

Each structure is given as a SMILES string. Like-named read-outs stand apart in the source and are kept apart here.

Usually fraction unbound stands for the share of the substance not bound to proteins or other matrix. A higher fraction unbound goes with much free substance. A word on the IC50: it is the concentration at which inhibition is half-maximal. The compound `COc1cc(F)ccc1-c1cc(Nc2cc(CS(C)(=N)=O)ccn2)ncc1F` (stereo not drawn) [enitociclib] had a free fraction (fraction unbound) in series [1] of 0.666. In addition, the IC50 in series [2] (Homo sapiens, lymphoma cell lines, media fu = 66.6%, read-out: mean unbound IC50 for cytotoxicity) is roughly 67 nM; in series [2] (range over panel of 35 human lymphoma cell lines, read-out: IC50 (cell cytotoxicity)), 43 to 152 nM. Moreover, in series [3], the “inhibition of MCL1 mRNA levels” value is “approximately 75%”. Moreover, the “MYC mRNA in tumors (in words)” value in series [4] is recorded as “depleted by 4 hours postdose”. Besides, the “p-Ser5 reductions in tumors (in words)” value in series [5] is reported as “not robust”.
